Laboratory results taken from patent publication US8722662B2, “Heterocyclic compounds” (Takeda Pharmaceutical Company Limited, priority 2010, dated 2014).
Counter-ions that a name gives are not always drawn.

Experiments:
[1] = tested on: SD female rats; experiment: Measurement of urethral resistance increasing effect (leak point pressure), intravenous administration; format: in vivo; conditions: rat, 0.3 mg/kg and 1.0 mg/kg, 10 min after administration, compared to vehicle (Williams' test)
Protocol: Experimental Example 4 Measurement of Urethral Resistance Increasing Effect
The urethral resistance increasing effect in rat was measured by a modified method of Matsumoto et al. (WO2009/063992) as follows. That is, SD female rats (CLEA Japan, Inc.) were anesthetized with isoflurane (1.0%; Abbott), and the spinal cord was transected at Th8-9 to avoid the voiding reflex. After laparotomy, an intravesical pressure measurement catheter and a saline infusion catheter (PE-100; Clay Adams) were inserted into the bladder. Thereafter, the abdomen of the rat was closed with aronalpha A “Sankyo” (Daiichi Sankyo). […] The intravesical pressure measurement catheter was connected to a computer via a pressure transducer (REF685640; Nihon Koden), an amplifier (RPM-6008M; Nihon Koden), and a multi-channel data analyzer (MP150; Biopack), and changes in the intravesical pressure were recorded on a hard disc at a frequency of 100 samples/sec. […] The LPP value (Pre value) was measured, a drug was intravenously administered, and the measurement of LPP value (Post value) was again started 10 min after administration. […]
The compound of Example 6 (0.3 mg/kg), the compound of Example 6 (1.0 mg/kg) and the vehicle were administered to the rats, and the urethral resistance increasing effect was measured by the aforementioned method.

[2] = molecular target: T1, human serotonin transporter (Homo sapiens, UniProt P31645); experiment: Inhibitory action on human serotonin transporter ([3H]-5-hydroxytryptamine uptake in CHO cells); format: cell-based; conditions: relative to inhibitory activity of 10 μM Paroxetine as 100%, read-out: inhibitory rate (%)
T1 construct: expressed in transfected cells
T1 sequence (P31645 whole entry): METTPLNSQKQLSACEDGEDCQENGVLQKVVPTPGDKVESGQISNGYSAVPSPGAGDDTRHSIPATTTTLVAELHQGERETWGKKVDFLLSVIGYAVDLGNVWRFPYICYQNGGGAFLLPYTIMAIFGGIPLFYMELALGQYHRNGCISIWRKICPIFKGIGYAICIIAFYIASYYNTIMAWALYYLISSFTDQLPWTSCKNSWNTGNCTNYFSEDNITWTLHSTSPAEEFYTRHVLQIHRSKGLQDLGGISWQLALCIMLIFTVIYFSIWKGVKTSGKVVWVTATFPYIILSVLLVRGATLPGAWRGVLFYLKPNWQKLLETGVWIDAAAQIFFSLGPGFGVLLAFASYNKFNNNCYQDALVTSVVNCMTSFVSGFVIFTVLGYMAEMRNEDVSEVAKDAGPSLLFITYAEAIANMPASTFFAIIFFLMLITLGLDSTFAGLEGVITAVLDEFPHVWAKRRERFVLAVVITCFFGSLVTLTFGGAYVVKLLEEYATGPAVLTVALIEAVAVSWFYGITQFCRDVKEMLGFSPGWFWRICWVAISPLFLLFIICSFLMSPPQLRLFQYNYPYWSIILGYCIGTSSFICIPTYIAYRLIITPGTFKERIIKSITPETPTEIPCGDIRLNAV
Description: (2) Preparation of Human Monoamine Expressing Cell
(§1) Human serotonin transporter cDNA was amplified from human brain cDNA library by PCR, and inserted into pCRII-TOPO vector (manufactured by Invitrogen). The base sequence was confirmed and modified, and subcloned to pcDNA3.1 vector (manufactured by Invitrogen), whereby a human serotonin transporter expression plasmid was constructed. Human norepinephrine transporter cDNA was purchased from Invitrogen, and the base sequence was confirm and modified, and subcloned to pcDNA3.1 vector, whereby a human norepinephrine transporter expression plasmid was constructed. […]
(§2) The cultured cells that reached almost confluent were rinsed with PBS (Invitrogen), detached with Trypsin/EDTA (Invitrogen), and collected by a centrifugal operation. The obtained cells were counted, and diluted to 3×10^5 cells per 1 mL medium, the mixture was dispensed to a 96 well white plate (Corning) at 100 μL per well, and cultured overnight in a CO2 incubator.
(§3) Then, an assay buffer (126 mM NaCl, 4.95 mM KCl, 1.26 mM KH2PO4, 1.26 mM MgSO4, 10 mM HEPES, 2.32 mM CaCl2, 5.52 mM Glucose, 0.5% BSA) was prepared, the medium in the cell plate was removed and the assay buffer was added by 80 μL. […] The radioactivity was measured by TopCount (PerkinElmer). […]

[3] = molecular target: human norepinephrine transporter (Homo sapiens, UniProt P23975); experiment: Inhibitory action on human norepinephrine transporter ([3H]-norepinephrine uptake in CHO cells); format: cell-based; conditions: relative to inhibitory activity of 10 μM DMI as 100%, read-out: inhibitory rate (%)
Chain of human norepinephrine transporter (P23975 whole entry): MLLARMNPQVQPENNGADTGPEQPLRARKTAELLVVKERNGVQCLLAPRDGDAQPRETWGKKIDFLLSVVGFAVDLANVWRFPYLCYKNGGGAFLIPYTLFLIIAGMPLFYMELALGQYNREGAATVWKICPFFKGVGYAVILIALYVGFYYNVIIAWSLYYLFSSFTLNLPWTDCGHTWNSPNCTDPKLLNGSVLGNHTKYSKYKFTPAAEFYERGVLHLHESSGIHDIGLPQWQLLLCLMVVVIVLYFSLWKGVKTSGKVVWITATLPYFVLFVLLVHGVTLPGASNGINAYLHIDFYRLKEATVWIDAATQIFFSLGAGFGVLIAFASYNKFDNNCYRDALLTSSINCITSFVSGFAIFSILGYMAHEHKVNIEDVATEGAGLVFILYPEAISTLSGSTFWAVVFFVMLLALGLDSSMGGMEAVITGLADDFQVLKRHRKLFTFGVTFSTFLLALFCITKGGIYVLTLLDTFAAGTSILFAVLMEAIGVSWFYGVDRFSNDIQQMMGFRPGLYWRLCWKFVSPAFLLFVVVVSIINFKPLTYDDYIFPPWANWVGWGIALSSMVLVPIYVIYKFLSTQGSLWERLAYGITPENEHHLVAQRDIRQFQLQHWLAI
Description: as §1
as §2, with “medium, and” for “medium,”
as §3

[4] = molecular target: T2, human dopamine transporter (Homo sapiens, UniProt Q01959); experiment: Inhibitory action on human dopamine transporter ([3H]-dopamine uptake in CHO cells); format: cell-based; conditions: relative to inhibitory activity of 100 μM Nomifensine as 100%, read-out: inhibitory rate (%)
T2 construct: expressed in transfected cells
T2 sequence (Q01959 whole entry): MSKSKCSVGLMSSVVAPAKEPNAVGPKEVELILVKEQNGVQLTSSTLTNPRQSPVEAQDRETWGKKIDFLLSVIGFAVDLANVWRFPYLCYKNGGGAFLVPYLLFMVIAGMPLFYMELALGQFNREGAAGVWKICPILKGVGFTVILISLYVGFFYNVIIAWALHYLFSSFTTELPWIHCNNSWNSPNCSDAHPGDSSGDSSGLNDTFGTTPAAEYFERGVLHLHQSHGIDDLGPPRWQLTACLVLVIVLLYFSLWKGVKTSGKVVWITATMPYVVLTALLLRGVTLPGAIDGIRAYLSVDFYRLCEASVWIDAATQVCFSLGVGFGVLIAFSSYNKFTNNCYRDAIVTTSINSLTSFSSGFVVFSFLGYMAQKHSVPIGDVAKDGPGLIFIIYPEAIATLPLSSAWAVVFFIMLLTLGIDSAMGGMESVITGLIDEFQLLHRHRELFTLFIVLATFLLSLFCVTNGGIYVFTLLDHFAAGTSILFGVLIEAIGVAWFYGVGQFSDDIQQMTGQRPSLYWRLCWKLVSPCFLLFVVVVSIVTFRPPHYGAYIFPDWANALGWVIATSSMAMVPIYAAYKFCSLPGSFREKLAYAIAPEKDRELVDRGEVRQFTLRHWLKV
Description: (1) Construction of Human Dopamine Transporter Expression Plasmid
SRα promoter contained in pTB1411 described in JP-A-H5-076385 was cleaved with restriction enzyme HindIII (manufactured by TAKARA BIO INC.), blunt-ended, further cleaved with restriction enzyme EcoRI (manufactured by TAKARA BIO INC.), and fragmented. On the other hand, pCI vector was cleaved with restriction enzyme BglII (manufactured by TAKARA BIO INC.), blunt-ended with T4 DNA polymerase, and further cleaved with restriction enzyme EcoRI (manufactured by TAKARA BIO INC.). Into this site was inserted an SRα promoter fragment to give pCI-SRa. […]
as §2, with “One day before the assay, the cultured” for “The cultured”, “medium, and” for “medium,”
as §3, with “On the day of the test,” for “Then,”

| Structure (SMILES) | urethral resistance increasing effect (LPP Post value minus Pre value) [1] | inhibition at 1 µM ([2]; compound 1 μM) [%] | inhibition at 10 µM ([2]; compound 10 μM, CHO cells expressing human serotonin transporter) [%] | inhibition at 1 µM ([3]; compound 1 μM) [%] | inhibition at 10 µM ([3]; compound 10 μM) [%] | inhibition at 1 µM ([4]; compound 1 μM) [%] | inhibition at 10 µM ([4]; compound 10 μM) [%] |
| --- | --- | --- | --- | --- | --- | --- | --- |
| CC(=O)NC[C@H]1CNCCO[C@@H]1c1ccc(Cl)c(Cl)c1 (racemic) [Example 6, N-{[(6RS,7SR)-7-(3,4-dichlorophenyl)-1,4-oxazepan-6-yl]methyl}acetamide monohydrochloride] | dose-dependent and significant urethral resistance increasing effect | – | – | – | – | – | – |
| OC[C@H]1NCCOC[C@@H]1c1ccc(Cl)c(Cl)c1 (racemic) [Example 14, [(5RS,6SR)-6-(3,4-dichlorophenyl)-1,4-oxazepan-5-yl]methanol monohydrochloride] | – | 31 | 79 | 98 | 100 | 87 | 99 |
